Test results: patent US20260285898A1, “SAPONIN DERIVATIVES AS ADJUVANTS AND PHOTOAFFINITY PROBES” (ASOCIACIÓN CENTRO DE INVESTIGACIÓN COOPERATIVE EN …, priority 2023, published 2026)

Test: Initial toxicity assessment in mice by median weight loss after injection
Conditions: monitored after each injection (1st, 2nd and 3rd booster dose); s.c., saponin 20 μg/mouse with OVA 10 μg/mouse; FIG. 1
Method: Groups of five mice (C57BL/6, female, 6-8 weeks old) were vaccinated subcutaneously three times […] (days 0, 14, and 28) with endotoxin-free OVA (EndoFit™ Ovalbumin, Invitrogen) (10 μg/mouse) in phosphate-buffered saline (PBS, 100 μL) either alone (no-adjuvant control group) or with the synthetic saponins (20 μg/mouse). To analyze the antibody responses over time, mice were bled via the submandibular vein at the indicated pre- (day −1) and post-vaccination timepoint (day 21), and by cardiac puncture at the experimental endpoint (day 35). Blood was collected in BD Microtainer® tubes (Clot Activator/SST™ Gel) and centrifuged at 7500 g for 10 min, after which serum was harvested and stored at −20° C. until further analysis.
As a standard initial overall assessment of the potential toxicity of the saponins, in addition to visual inspection for potential signs of discomfort, the weight loss of each group of mice was monitored before and after each immunization. The median percentage weight change at different timepoints post-injection was determined and analyzed.
Mouse weight loss was monitored after each injection (1st, 2nd and 3rd (booster dose)).

Compound: CC1OC(OC2C(OC(=O)C34CCC(C)(C)CC3C3=CCC5C6(C)CCC(OC7OC(C(=O)O)C(O)C(OC8OCC(O)C(O)C8O)C7OC7OC(CO)C(O)C(O)C7O)C(C)(C=O)C6CCC5(C)C3(C)CC4O)OC(CO)C(NC(=O)CCCCCNC(=O)c3ccc(C(=O)c4ccc(C(=O)NCCOCCOCCOCCOCCOCCNC(=O)CCCCC5SCC6NC(=O)NC65)cc4)cc3)C2O)C(O)C(O)C1OC1OCC(O)C(O)C1O (stereo not shown) [BTS-25-BP]
- Mouse weight loss (toxicity): about 2%
